The text below walks through data of paper PMC8518066, “Efficient Entropy‐Driven Inhibition of Dipeptidyl Peptidase III by Hydroxyethylene Transition‐State Peptidomimetics” (Chemistry (Weinheim an Der Bergstrasse, Germany), 2021).

The term IC50 denotes the point on the concentration scale where inhibition reaches its midpoint. What is called melting point is the temperature, or range, at which the solid turns liquid. As usually defined, the Kd is the concentration at which binding is half-saturated.

The test system of one data set is Mammalian DPP3. Further details: method as in PMID 7931295, PMID 9425109. As to conditions: cited from earlier work.
The target of data set [1] is T1, hDPP3 (Homo sapiens, UniProt Q9NY33).
T1 construct: His6 (cleaved yes); made in house; host or cells: E. coli BL21-CodonPlus (DE3) RIL
T1 sequence (Q9NY33 1-726): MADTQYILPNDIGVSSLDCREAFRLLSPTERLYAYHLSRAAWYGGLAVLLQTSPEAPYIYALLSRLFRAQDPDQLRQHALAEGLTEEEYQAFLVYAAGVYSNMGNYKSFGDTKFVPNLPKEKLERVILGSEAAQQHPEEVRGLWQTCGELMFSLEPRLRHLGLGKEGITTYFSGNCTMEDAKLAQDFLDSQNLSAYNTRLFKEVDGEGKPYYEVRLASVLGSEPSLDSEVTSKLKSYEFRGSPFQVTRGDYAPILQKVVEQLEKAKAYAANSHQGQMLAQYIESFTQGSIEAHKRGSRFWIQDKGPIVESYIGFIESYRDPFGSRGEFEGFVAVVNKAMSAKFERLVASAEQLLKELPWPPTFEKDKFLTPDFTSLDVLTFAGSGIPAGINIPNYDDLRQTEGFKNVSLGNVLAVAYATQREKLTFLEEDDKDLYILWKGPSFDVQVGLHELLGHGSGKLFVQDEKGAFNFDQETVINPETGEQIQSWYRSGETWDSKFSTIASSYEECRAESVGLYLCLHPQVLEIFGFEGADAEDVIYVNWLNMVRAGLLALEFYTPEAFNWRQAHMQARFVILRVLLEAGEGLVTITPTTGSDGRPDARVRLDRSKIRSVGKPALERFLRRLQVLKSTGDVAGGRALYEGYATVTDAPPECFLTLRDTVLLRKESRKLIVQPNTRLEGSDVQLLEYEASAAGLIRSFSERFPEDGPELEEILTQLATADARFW
Briefly: Time-dependent inhibition of hDPP3 by tynorphin and HER. The format is biochemical. As to conditions: inhibitor at 5 times IC50, room temperature, 0-24 h.

The target of data set [2] is T1, hDPP3. Briefly: Fluorescence-based competitive enzyme inhibition assay (degradation of H-Arg-Arg-βNA substrate). The class given is biochemical. As to conditions: for IC50: hDPP3, H-Arg-Arg-βNA substrate, 37 °C, pH 8.0.
Data set [3] relates to DPP3 in mouse brain homogenate. The data set is described as follows: Ex vivo DPP3 inhibition in mouse brain homogenate. The format is biochemical. The settings on record: Figure SI1.
Data set [4] deals with T1, hDPP3. The data set is described as follows: Thermal shift assay (Thermofluor). The format is binding. The settings on record: 10 µM hDPP3, 50 µM HER.
In data set [5] the target is T2, hDPP3 (inactive variant E451A) (Homo sapiens, UniProt Q9NY33, E451A).
T2 construct: His6 (cleaved yes); made in house; host or cells: E. coli BL21-CodonPlus (DE3) RIL
T2 sequence (Q9NY33 1-726 E451A): T1 sequence (Q9NY33 1-726) with E451A
Briefly: Isothermal titration calorimetry (ITC). The class given is binding. As to conditions: mean of three independent measurements; for Kd: hDPP3 E451A, 298 K. In general terms: ITC needs no label: the signal is the heat of the interaction.

The test system of another data set is placental DPP3. Also on record: method as in PMID 9711218. As to conditions: placental DPP3, H-Arg-Arg-βNA substrate; cited from earlier work.

Where a chain is given by its changes, count along the chain named. Read-outs that look alike come from different tables or passages of the source.

Consider `O=c1oc(Cl)c(Cl)c2ccccc12` [DCI, 3,4‐dichloroisocoumarin], for which, in the data set with Mammalian DPP3 (covalently binding serine peptidase inhibitors), the “inhibition of mammalian DPP3” value is listed as “significantly inhibited”.
For the molecule tynorphin [reference compound], the “time-dependent inhibition of hDPP3 (stability against the peptidase)” value on hDPP3 [1] was “lost its efficacy within the first hour”.
As to `COC(=O)[C@H](Cc1c[nH]c2ccccc12)NC(=O)[C@@H]1CCCN1C(=O)[C@H](Cc1ccc(O)cc1)C[C@@H](O)[C@@H](NC(=O)[C@@H](N)C(C)C)C(C)C` [compound 32], the melting point is 148 to 150 °C. Besides, the half-maximal inhibitory concentration (IC50) on hDPP3 [2] turned out to be 17.9 µM.
`CC(C)C(N)C(=O)NC(C(C)C)C(O)CC(Cc1ccccc1)C(=O)N1CCCC1C(=O)NC(Cc1c[nH]c2ccccc12)C(=O)O` (stereo not shown) [HER] returned a melting point of 148 to 152 °C. Also, the “inhibition of DPP3 in mouse brain homogenate” value in data set [3] is given as “efficiently inhibit DPP3 in mouse brain homogenate without losing much of its potency”. For the same molecule, at hDPP3 [4] (t=0 h of incubation), the “Melting temperature (Tm) of hDPP3+HER” value is 57.5 °C. Moreover, the “Melting temperature (Tm) of hDPP3+HER” value at hDPP3 [4] (t=24 h of incubation) was found to be 57 °C. In addition, in data set [5], the Kd amounted to 11 µM, the “-TΔS” value is -16.0 kcal/mol and the ΔH is given as 10.7 kcal/mol. In addition, the “potency relative to SHE (IC50 ratio)” value on hDPP3 [2] (HER versus SHE) is recorded as 7 fold. The molecule also displayed a concentration for half-maximal inhibition (IC50) at hDPP3 [2] of 13.8 µM. In addition, the “time-dependent inhibition of hDPP3 (stability against the peptidase)” value on hDPP3 [1] is reported as “efficiently inhibit the activity over a period of 24 h”.
Molecule `Cc1ccc(C[C@H](C[C@@H](O)[C@@H](NC(=O)[C@@H](N)C(C)C)C(C)C)C(=O)N2CCC[C@H]2C(=O)N[C@@H](Cc2c[nH]c3ccccc23)C(=O)O)cc1` showed a melting point of 160 to 162 °C.
Same read-out and setting: the value for `CC(C)[C@H](N)C(=O)N[C@@H](C(C)C)[C@H](O)C[C@@H](Cc1ccc(O)cc1)C(=O)N1CCC[C@H]1C(=O)N[C@@H](Cc1c[nH]c2ccccc12)C(=O)O` was 172 to 174 °C.
With `CC(C)[C@H](N)C(=O)N[C@@H](C(C)C)[C@@H](O)C[C@@H](Cc1ccccc1)C(=O)N1CCC[C@H]1C(=O)N[C@@H](Cc1c[nH]c2ccccc12)C(=O)O` [SHE], in data set [5], binding was put at a Kd of 23 µM, the “-TΔS” value was -8.1 kcal/mol and the ΔH amounted to 2.3 kcal/mol. The half-maximal inhibitory concentration (IC50) at hDPP3 [2] was 98.5 µM.
For `CC1C(=O)c2cc(O)c3c(c2C(O)C1O)C(=O)c1cccc(O)c1-3` (stereo not shown) [B, fluostatins A and B], the IC50 in the data set on placental DPP3 is 74 µM.
`CC(C)[C@H](N)C(=O)N[C@@H](C(C)C)[C@H](O)C[C@@H](Cc1ccc(F)cc1)C(=O)N1CCC[C@H]1C(=O)N[C@@H](Cc1c[nH]c2ccccc12)C(=O)O` registered a melting point of 168 to 170 °C.
As to `O=S(=O)(F)Cc1ccccc1` [PMSF, phenylmethanesulfonylfluoride], in the data set with Mammalian DPP3, the “inhibition of mammalian DPP3” value is recorded as “significantly inhibited”.
`Cc1cc(=O)c2c(cc(O)c3c4c(O)cccc4c(=O)c32)c1=O` [fluostatins A]: in the data set on placental DPP3, the IC50 is 1.44 µM.
In turn, `CC(C)[C@H](N)C(=O)N[C@@H](C(C)C)[C@H](O)C[C@@H](Cc1ccccc1)C(=O)N1CCCC[C@H]1C(=O)N[C@@H](Cc1c[nH]c2ccccc12)C(=O)O` [37 a] displayed a melting point of 160 to 162 °C. Further, on hDPP3 [2], the IC50 came out at 34.4 µM.
Turning to `Cc1ccc(S(=O)(=O)N[C@@H](Cc2ccccc2)C(=O)CCl)cc1` [TPCK, tosyl‐phenylalanyl chloromethyl ketone], the “inhibition of mammalian DPP3” value with Mammalian DPP3 is “significantly inhibited”.
Molecule `CC(C)[C@H](NC(=O)[C@@H](N)C(C)(C)C)[C@H](O)C[C@@H](Cc1ccccc1)C(=O)N1CCCC[C@H]1C(=O)N[C@@H](Cc1c[nH]c2ccccc12)C(=O)O` [37 b] registered a melting point of 164 to 166 °C.
